From PMC5216056 (Nature Communications, 2017)

How the values were obtained:
[1] = Pharmacokinetics, oral administration in rat; type: in vivo; conditions: p.o.
[2] = phosphate buffer pH 6.5, from DMSO stock
H3 (h) = biological target: T1, H3 (h) (Homo sapiens, UniProt Q9Y5N1); test: CEREP panel; type: binding; conditions: 10 µM
T1 construct: CEREP (contract assay)

H1 (h) = biological target: T2, H1 (h) (Homo sapiens, UniProt P35367); test: CEREP panel; type: binding; conditions: 10 µM
T2 construct: CEREP (contract assay)

D2S (h) = biological target: T3, D2S (h) (Homo sapiens, UniProt P14416); test: CEREP panel; type: binding; conditions: 10 µM
T3 construct: CEREP (contract assay)
T3 sequence (P14416 1-414 isoform P14416-2): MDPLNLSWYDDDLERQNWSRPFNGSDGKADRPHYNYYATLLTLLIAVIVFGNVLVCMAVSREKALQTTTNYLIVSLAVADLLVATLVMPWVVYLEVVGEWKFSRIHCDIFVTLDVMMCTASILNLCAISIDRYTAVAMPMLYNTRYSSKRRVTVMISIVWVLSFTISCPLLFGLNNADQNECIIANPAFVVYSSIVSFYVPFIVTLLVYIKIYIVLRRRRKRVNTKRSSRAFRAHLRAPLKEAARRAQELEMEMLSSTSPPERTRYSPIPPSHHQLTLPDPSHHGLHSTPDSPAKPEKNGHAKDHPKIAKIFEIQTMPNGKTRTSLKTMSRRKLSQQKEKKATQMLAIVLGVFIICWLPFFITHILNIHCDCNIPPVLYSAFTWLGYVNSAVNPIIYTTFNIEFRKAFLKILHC

dopamine uptake reporter = biological target: T4, dopamine uptake reporter (Homo sapiens, UniProt Q01959); test: Dopamine uptake full dose-response (CEREP follow-up)
T4 construct: CEREP
T4 sequence (Q01959 whole entry): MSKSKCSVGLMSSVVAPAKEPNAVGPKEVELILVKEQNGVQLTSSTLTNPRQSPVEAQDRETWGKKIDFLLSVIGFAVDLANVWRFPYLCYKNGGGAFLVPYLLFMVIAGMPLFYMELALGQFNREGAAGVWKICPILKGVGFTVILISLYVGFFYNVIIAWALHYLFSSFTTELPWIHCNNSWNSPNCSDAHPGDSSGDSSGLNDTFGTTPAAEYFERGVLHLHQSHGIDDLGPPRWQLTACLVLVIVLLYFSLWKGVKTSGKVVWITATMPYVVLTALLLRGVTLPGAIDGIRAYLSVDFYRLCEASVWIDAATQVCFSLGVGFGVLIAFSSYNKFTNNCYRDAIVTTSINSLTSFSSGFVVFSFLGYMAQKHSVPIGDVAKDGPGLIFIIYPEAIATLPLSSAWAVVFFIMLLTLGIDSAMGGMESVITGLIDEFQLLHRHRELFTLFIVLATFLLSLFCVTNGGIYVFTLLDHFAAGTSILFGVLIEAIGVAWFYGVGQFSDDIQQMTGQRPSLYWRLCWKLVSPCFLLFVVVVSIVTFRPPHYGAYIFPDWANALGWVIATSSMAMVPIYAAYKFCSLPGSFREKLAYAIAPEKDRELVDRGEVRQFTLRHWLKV

CCK1 (CCKA) (h) = biological target: T5, CCK1 (CCKA) (h) (Homo sapiens, UniProt P32238); test: CEREP panel; type: binding
T5 construct: CEREP (contract assay)
T5 sequence (P32238 whole entry): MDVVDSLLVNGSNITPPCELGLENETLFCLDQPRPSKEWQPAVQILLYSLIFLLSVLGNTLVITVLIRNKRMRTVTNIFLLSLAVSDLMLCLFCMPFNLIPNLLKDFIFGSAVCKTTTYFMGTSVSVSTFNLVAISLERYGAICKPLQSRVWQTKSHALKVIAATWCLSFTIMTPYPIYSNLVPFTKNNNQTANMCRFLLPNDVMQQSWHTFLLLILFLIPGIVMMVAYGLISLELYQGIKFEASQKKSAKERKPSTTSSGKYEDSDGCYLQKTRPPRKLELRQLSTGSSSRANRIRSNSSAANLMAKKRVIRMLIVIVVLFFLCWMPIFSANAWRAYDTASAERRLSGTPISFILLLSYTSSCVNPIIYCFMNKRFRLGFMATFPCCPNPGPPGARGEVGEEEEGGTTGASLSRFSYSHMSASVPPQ

hABHD12 = biological target: T6, hABHD12 (Homo sapiens, UniProt Q8N2K0); test: ABHD12 activity; type: biochemical; conditions: read-out: ABHD12 % inhibition
T6 construct: expressed in transfected cells
T6 sequence (Q8N2K0 1-398): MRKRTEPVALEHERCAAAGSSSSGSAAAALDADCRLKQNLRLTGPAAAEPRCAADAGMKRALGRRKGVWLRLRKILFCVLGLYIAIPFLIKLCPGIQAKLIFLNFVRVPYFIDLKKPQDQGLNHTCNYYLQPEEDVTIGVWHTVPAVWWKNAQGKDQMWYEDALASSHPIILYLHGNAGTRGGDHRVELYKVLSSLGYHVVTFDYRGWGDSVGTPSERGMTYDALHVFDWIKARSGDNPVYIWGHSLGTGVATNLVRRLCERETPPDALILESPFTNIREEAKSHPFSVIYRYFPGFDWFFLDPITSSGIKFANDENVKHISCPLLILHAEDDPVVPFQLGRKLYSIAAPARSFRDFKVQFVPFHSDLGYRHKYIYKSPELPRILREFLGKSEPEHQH

dopamine transporter (h) = biological target: T7, dopamine transporter (h) (Homo sapiens, UniProt Q01959); test: CEREP panel; type: binding
T7 construct: CEREP (contract assay)
T7 sequence (Q01959 whole entry): as the sequence (Q01959 whole entry) above

MCH2 = biological target: T8, MCH2 (Homo sapiens, UniProt Q969V1); test: CEREP panel; type: binding
T8 construct: CEREP (contract assay)
T8 sequence (Q969V1 whole entry): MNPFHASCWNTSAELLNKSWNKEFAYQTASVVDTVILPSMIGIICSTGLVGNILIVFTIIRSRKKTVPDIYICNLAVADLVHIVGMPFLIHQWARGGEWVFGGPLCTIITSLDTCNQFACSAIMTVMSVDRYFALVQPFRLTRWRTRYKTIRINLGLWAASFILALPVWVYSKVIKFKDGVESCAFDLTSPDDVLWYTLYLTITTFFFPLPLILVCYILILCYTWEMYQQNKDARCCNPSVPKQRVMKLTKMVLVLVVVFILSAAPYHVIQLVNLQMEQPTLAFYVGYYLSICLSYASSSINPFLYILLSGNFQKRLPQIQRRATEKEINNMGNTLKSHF

BLT1 (LTB4) = biological target: T9, BLT1 (LTB4) (Homo sapiens, UniProt Q15722); test: CEREP panel; type: binding
T9 construct: CEREP
T9 sequence (Q15722 whole entry): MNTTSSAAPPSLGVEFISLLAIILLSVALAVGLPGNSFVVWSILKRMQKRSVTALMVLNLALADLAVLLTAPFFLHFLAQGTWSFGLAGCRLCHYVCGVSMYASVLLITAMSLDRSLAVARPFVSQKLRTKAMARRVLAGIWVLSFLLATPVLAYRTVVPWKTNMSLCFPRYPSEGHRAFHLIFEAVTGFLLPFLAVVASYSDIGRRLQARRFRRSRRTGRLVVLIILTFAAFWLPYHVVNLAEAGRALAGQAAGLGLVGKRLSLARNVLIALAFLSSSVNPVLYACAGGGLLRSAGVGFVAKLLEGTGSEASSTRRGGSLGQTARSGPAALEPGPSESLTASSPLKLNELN

MC1 = biological target: T10, MC1 (Mus musculus, UniProt Q01727); test: CEREP panel; type: binding
T10 construct: CEREP (contract assay)
T10 sequence (Q01727 whole entry): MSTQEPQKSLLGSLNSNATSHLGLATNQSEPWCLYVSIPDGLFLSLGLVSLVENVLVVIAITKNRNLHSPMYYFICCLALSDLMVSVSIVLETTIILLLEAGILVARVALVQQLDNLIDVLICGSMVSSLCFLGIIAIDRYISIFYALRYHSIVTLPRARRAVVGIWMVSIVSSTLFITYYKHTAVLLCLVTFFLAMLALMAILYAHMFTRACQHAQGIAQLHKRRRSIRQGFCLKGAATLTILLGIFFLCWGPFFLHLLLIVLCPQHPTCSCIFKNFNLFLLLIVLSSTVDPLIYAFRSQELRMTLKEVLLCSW

B1 = biological target: T11, B1 (Homo sapiens, UniProt P46663); test: CEREP panel; type: binding
T11 construct: CEREP
T11 sequence (P46663 whole entry): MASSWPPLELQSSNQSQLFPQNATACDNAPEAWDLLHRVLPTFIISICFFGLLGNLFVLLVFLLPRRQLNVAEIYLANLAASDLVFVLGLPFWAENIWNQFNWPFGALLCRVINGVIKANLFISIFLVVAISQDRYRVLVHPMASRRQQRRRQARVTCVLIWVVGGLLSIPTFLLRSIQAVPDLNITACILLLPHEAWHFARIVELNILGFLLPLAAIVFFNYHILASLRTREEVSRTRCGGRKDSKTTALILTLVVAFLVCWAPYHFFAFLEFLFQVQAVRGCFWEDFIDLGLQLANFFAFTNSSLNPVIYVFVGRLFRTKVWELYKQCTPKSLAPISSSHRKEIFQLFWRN

MC5 = biological target: T12, MC5 (Homo sapiens, UniProt P33032); test: CEREP panel; type: binding
T12 construct: CEREP (contract assay)

A2B = biological target: T13, A2B (Homo sapiens, UniProt P29275); test: CEREP panel; type: binding
T13 construct: CEREP
T13 sequence (P29275 whole entry): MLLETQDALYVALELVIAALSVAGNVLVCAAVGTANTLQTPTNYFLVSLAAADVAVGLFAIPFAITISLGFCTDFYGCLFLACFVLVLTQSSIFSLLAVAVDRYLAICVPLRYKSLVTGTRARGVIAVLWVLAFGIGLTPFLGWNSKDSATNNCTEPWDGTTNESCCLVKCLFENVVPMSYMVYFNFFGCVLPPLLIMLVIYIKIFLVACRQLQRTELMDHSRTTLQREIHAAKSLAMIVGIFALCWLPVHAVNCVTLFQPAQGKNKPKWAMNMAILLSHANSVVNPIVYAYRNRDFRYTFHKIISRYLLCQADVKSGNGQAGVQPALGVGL

MCH1 = biological target: T14, MCH1 (Homo sapiens, UniProt Q99705); test: CEREP panel; type: binding
T14 construct: CEREP (contract assay)
T14 sequence (Q99705 whole entry): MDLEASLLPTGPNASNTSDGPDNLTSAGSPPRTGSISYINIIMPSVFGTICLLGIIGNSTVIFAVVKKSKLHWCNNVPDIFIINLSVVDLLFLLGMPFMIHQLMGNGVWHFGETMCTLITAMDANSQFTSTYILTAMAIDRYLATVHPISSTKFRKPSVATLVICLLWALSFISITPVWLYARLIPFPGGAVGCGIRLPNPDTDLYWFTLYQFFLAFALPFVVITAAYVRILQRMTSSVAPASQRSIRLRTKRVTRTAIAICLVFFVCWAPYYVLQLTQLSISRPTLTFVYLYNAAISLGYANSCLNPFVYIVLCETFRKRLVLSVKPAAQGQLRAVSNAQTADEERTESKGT

C5a = biological target: T15, C5a (Homo sapiens, UniProt P21730); test: CEREP panel; type: binding
T15 construct: CEREP (contract assay)

MC3 = biological target: T16, MC3 (Homo sapiens, UniProt P41968); test: CEREP panel; type: binding
T16 construct: CEREP (contract assay)
T16 sequence (P41968 whole entry): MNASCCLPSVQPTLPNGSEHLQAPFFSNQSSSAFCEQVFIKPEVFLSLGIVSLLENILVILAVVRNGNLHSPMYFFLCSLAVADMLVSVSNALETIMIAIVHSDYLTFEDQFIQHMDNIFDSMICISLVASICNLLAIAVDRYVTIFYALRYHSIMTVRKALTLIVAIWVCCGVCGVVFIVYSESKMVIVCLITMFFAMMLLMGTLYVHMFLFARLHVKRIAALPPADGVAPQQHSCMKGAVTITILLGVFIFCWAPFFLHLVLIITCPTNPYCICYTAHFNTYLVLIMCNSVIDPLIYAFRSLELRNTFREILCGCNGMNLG

PR = test: CEREP panel; type: binding; conditions: 10 µM
motilin = biological target: T17, motilin (Homo sapiens, UniProt O43193); test: CEREP panel; type: binding
T17 construct: CEREP (contract assay)
T17 sequence (O43193 whole entry): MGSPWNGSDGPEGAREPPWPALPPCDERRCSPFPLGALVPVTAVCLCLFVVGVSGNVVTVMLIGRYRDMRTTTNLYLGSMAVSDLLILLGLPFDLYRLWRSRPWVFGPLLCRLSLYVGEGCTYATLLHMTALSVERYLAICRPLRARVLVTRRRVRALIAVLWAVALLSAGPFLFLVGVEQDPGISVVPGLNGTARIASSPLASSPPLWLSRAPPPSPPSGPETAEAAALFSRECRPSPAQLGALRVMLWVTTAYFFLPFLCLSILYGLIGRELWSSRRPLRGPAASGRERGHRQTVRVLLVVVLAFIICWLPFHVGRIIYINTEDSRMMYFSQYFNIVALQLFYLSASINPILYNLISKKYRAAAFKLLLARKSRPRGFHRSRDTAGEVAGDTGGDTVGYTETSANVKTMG

T1 sequence (Q9Y5N1 whole entry): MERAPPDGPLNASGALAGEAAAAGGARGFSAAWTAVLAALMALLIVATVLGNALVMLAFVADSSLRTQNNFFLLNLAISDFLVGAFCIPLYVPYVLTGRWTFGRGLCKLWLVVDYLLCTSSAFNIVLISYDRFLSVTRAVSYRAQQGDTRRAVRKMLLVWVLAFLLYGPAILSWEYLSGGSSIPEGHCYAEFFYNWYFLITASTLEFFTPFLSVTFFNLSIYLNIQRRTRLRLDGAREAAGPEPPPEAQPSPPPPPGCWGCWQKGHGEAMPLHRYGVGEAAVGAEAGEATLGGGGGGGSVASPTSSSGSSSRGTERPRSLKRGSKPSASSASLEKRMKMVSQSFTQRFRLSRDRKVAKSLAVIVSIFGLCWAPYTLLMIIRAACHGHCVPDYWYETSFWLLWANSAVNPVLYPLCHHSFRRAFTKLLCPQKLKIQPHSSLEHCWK

CCCC(C)(C)c1ccc2c(c1)OC(C)(C)[C@@H]1CC=C(C)C[C@@H]21 [JWH133] showed an AUCinf/dose [1] of 583 kg·ng·h/mL/mg, an AUClast [1] of 3330 ng·h/mL and a T1/2 [1] of 2.7 h. It also gave a Cmax ([1]; 6.0 mg/kg) of 2070 ng/mL and a Tmax ([1]; 6.0 mg/kg) of 1.1 h.
For CCCCCCC(C)(C)c1ccc([C@@H]2C[C@H](O)CC[C@H]2CCCO)c(O)c1 [CP55940], the Kinetic solubility [2] was “soluble”.
In the case of CN1CCCC[C@H]1Cn1cc(C(=O)c2cc([N+](=O)[O-])ccc2I)c2ccccc21 [(S)-AM1241], the “% inhibition H3 (h)” value (H3 (h)) is reported as 87% and the “% inhibition H1 (h)” value (H1 (h)) is reported as 78%.
For Cc1ccc2c(c1)Cc1c(C(=O)NN3CCCCC3)nn(-c3ccc(Cl)cc3Cl)c1-2 [Gp-1a], the “% inhibition D2S (h)” value (D2S (h)) was 53%.
With CCCCCCC(C)(C)c1cc(OC)c(C2=C[C@H]3CC[C@]2(CO)C3(C)C)c(OC)c1 [HU910] the IC50 (dopamine uptake reporter) was 1.4 µM.
CCCCCCC(C)(C)c1cc(OC)c([C@@H]2C=C(CO)[C@@H]3C[C@H]2C3(C)C)c(OC)c1 [HU308] showed an inhibition at 10 µM (CCK1 (CCKA) (h)) of 75%, an inhibition at 5 µM (hABHD12) of less than 25% and an inhibition at 10 µM (dopamine transporter (h)) of 71%.
Work on Cc1c(C(=O)NN2CCCCC2)nn(-c2ccc(Cl)cc2Cl)c1-c1ccc(Cl)cc1 [SR141716A] yielded an inhibition at 10 µM (MCH2) of -3%, an inhibition at 10 µM (BLT1 (LTB4)) of 14% and an inhibition at 10 µM (MC1) of 10%. It also gave an inhibition at 10 µM (B1) of -3%, an inhibition at 10 µM (MC5) of 39% and an inhibition at 10 µM (A2B) of -7%. For the same molecule, the inhibition at 10 µM (MCH1) was -12%, the inhibition at 10 µM (C5a) was 2% and the inhibition at 10 µM (MC3) was 53%. The “% inhibition PR” value (PR) was 12% and the inhibition at 10 µM (motilin) was 25%.
